Assay results from patent US6897217B2, “2-Alkynyl-and 2-alkenyl-pyrazolo-[4,3-e]-1,2,4-triazolo-[1,5-c]-pyrimidine adenosine A2a receptor antagonists” (Schering Corporation, priority 2003, dated 2005).

Target: T1, Human A2a Adenosine Receptor (Homo sapiens, UniProt P29274)
T1 construct: purchased Receptor Biology, Inc., Beltsville, Md; RB-HA2a
Assay: Human adenosine A2a receptor competition binding assay
Conditions: [3H]-SCH 58261 displacement, human A2a membranes
Description: Human Adenosine A2a and A1 Receptor Competition Binding Assay Protocol
• A2a: Human A2a Adenosine Receptor membranes, Catalog #RB-HA2a, Receptor Biology, Inc., Beltsville, Md. Dilute to 17 μg/100 μl in membrane dilution buffer (see below). Assay Buffers • Membrane dilution buffer: Dulbecco's Phosphate Buffered Saline (Gibco/BRL)+10 mM MgCl2. • Compound Dilution Buffer: Dulbecco's Phosphate Buffered Saline (Gibco/BRL)+10 mM MgCl2 supplemented with 1.6 mg/ml methyl cellulose and 16% DMSO. Prepared fresh daily. Ligands • A2a: [3H]-SCH 58261, custom synthesis, AmershamPharmacia Biotech, Piscataway, N.J. Stock is prepared at 1 nM in membrane dilution buffer. Final assay concentration is 0.5 nM. • A1: [3H]-DPCPX, AmershamPharmacia Biotech, Piscataway, N.J. Stock is prepared at 2 nM in membrane dilution buffer. Final assay concentration is 1 nM. Non-specific Binding • A2a: To determine non-specific binding, add 100 nM CGS 15923 (RBI, Natick, Mass.). Working stock is prepared at 400 nM in compound dilution buffer. • A1: To determine non-specific binding, add 100 μM NECA (RBI, Natick, Mass.). Working stock is prepared at 400 μM in compound dilution buffer. Compound Dilution • Prepare 1 mM stock solutions of compounds in 100% DMSO. Dilute in compound dilution buffer. Test at 10 concentrations ranging from […] to 30 μM. Prepare working solutions at 4× final concentration in compound dilution buffer. […]

T1 sequence (P29274 whole entry): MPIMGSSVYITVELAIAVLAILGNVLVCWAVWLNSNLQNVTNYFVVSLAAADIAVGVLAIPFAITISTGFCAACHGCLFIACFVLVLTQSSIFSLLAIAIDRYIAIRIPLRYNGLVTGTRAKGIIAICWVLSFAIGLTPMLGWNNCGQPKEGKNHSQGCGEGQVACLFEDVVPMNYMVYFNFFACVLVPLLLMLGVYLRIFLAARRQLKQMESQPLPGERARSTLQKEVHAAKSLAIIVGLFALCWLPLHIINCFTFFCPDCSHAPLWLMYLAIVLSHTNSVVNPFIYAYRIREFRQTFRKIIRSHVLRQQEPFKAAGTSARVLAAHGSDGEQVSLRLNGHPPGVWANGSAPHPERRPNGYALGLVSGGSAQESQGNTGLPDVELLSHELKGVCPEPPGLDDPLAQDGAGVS

| Ki [nM] | SMILES |
| --- | --- |
| 2.2 | CC#Cc1nc2c3cnn(CCN4CCN(c5ccc(F)cc5F)CC4)c3nc(N)n2n1 [Example 1-17] |
| 2.3 | CC#Cc1nc2c3cnn(CCN4CCN(c5ccc(OCCOC)cc5F)CC4)c3nc(N)n2n1 [Example 5-4] |
